Measured values taken from patent US6737383B1, “Herbicidal oxadiazolidines” (priority 1999, dated 2004).

Assays:
winter wheat [1] = assay: Test E winter wheat; assay type: in vivo, Triticum aestivum; conditions: Preemergence
Italian ryegrass = assay: Test E Italian ryegrass; assay type: in vivo, Lolium multiflorum; conditions: Preemergence
winter barley = assay: Test E winter barley; assay type: in vivo, Hordeum vulgare; conditions: Preemergence
large crabgrass = assay: Test D large crabgrass; assay type: in vivo, Digitaria sanguinalis; conditions: Preemergence, 0 to 100 scale
Summary of the method: (§1)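 Seeds were sown in greenhouse pots, one species per pot or compartment. Compounds were in a non-phytotoxic solvent mixture with surfactant; preemergence applications went on the sandy loam surface within one day of planting. Injury was rated visually after 14 to 21 days, 0 (none) to 100 (complete control).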

green foxtail = assay: Test E green foxtail; assay type: in vivo, Setaria viridis; conditions: Preemergence
blackgrass [2] = assay: Test E blackgrass; assay type: in vivo, Alopecurus myosuroides; conditions: Preemergence
common pursiane = assay: Test D common purslane; assay type: in vivo, Portulaca oleracea; conditions: Preemergence, 0 to 100 scale
Summary of the method: as §1

bamyardgrass = assay: Test B flood test barnyardgrass; assay type: in vivo, Echinochloa crus-galli
Summary of the method: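 Read-out is a visual response score from 0 (no effect) to 10 (complete control), assigned by comparison with untreated controls. Treatment was applied at the 2-leaf stage, and plants stayed in the greenhouse for twelve to sixteen days before scoring.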

winter wheat [3] = assay: Test E winter wheat; assay type: in vivo, Triticum aestivum; conditions: Postemergence
Summary of the method: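 Greenhouse test: for postemergence, foliar application at 1- to 4-leaf stage; compound in non-phytotoxic solvent with surfactant. Rating is visual, relative to untreated controls, about 21 to 28 days after treatment.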

wild oat = assay: Test E wild oat; assay type: in vivo, Avena fatua; conditions: Preemergence
crabgrass = assay: Test B pre/postemergence crabgrass; assay type: in vivo, Digitaria sanguinalis
Summary of the method: (§2)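 Herbicidal effect was estimated by eye on a ten-point control scale after plants spent twelve to sixteen days in a greenhouse following soil or foliar treatment. Foliar sprays targeted plants at one to four leaves; all doses were formulated in a non-phytotoxic solvent with surfactant.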

blackgrass [4] = assay: Test B pre/postemergence blackgrass; assay type: in vivo, Alopecurus myosuroides
Summary of the method: as §2

Spanishneedles = assay: Test D Spanishneedles; assay type: in vivo, Bidens bipinnata; conditions: Preemergence, 0 to 100 scale, 0 no injury, 100 complete control
Summary of the method: as §1

morningglory = assay: Test B pre/postemergence morningglory; assay type: in vivo, Ipomoea hederacea
Summary of the method: as §2

purple nutsedge = assay: Test D purple nutsedge; assay type: in vivo, Cyperus rotundus; conditions: Preemergence, 0 to 100 scale
Summary of the method: as §1

[5] = Rate 62 g/ha, 0 to 100 scale, 0 no effect, 100 complete control
[6] = Rate 125 g/ha, 0 to 100 scale (0 no effect, 100 complete control)
[7] = Rate 16 g/ha, 0 no injury, 100 complete control
[8] = Rate 32 g/ha, 0 no injury, 100 complete control
[9] = Rate 64 g/ha, 0 no injury, 100 complete control
[10] = Rate 125 g/ha, 0 no injury, 100 complete control
[11] = Postemergence, Rate 125 g/ha, scale of 0 to 10 where 0 is no effect and 10 is complete control
[12] = Postemergence, Rate 250 g/ha, scale 0 to 10, 0 no effect, 10 complete control
[13] = Preemergence, Rate 62 g/ha, scale 0 to 10 (0 no effect, 10 complete control)
[14] = Preemergence, Rate 250 g/ha, scale of 0 to 10 where 0 is no effect and 10 is complete control
[15] = Preemergence, Rate 500 g/ha, scale 0 to 10 (0 no effect, 10 complete control)
[16] = Rate 62 g/ha, Postemergence, scale of 0 to 10 where 0 is no effect and 10 is complete control
[17] = Rate 500 g/ha, Postemergence, scale 0 to 10, 0 no effect, 10 complete control
[18] = Preemergence, Rate 125 g/ha, scale 0 to 10 (0 no effect, 10 complete control)

## CCCn1c(=O)on(C(=O)N(c2ccc(Cl)cc2)C(C)C)c1=O [Compound 119]
Winter wheat [1]; [5]
  Plant response rating, Wheat (winter): 0
Winter wheat [1]; [6]
  Plant response rating, Wheat (winter): 20
Winter wheat [1]; Rate 250 g/ha, 0 to 100 scale
  Plant response rating, Wheat (winter): 30
Italian ryegrass; [5]
  Plant response rating, I. Ryegrass: 10
Italian ryegrass; [6]
  Plant response rating, I. Ryegrass: 35
Italian ryegrass; Rate 250 g/ha, 0 to 100 scale
  Plant response rating, I. Ryegrass: 60
Winter barley; [5]
  Plant response rating, Barley (winter): 5
Winter barley; [6]
  Plant response rating, Barley (winter): 10
Winter barley; Rate 250 g/ha, 0 to 100 scale
  Plant response rating, Barley (winter): 10
Large crabgrass; [7]
  Plant response rating, Large crabgrass: 85
Large crabgrass; [8]
  Plant response rating, Large crabgrass: 90
Large crabgrass; [9]
  Plant response rating, Large crabgrass: 98
Large crabgrass; [10]
  Plant response rating, Large crabgrass: 100
Large crabgrass; Rate 250 g/ha
  Plant response rating, Large crabgrass: 100
Green foxtail; [5]
  Plant response rating, Green foxtail: 10
Green foxtail; [6]
  Plant response rating, Green foxtail: 50
Green foxtail; Rate 250 g/ha, 0 to 100 scale
  Plant response rating, Green foxtail: 60
Blackgrass [2]; [5]
  Plant response rating, Blackgrass: 20
Blackgrass [2]; [6]
  Plant response rating, Blackgrass: 10
Blackgrass [2]; Rate 250 g/ha, 0 to 100 scale
  Plant response rating, Blackgrass: 50
Common pursiane; [7]
  Plant response rating, C. purslane: 0
Common pursiane; [8]
  Plant response rating, C. purslane: 0
Common pursiane; [9]
  Plant response rating, C. purslane: 0
Common pursiane; [10]
  Plant response rating, C. purslane: 0
Common pursiane; Rate 250 g/ha
  Plant response rating, C. purslane: 0
bamyardgrass; Rate 250 g/ha, headed Pre-emergence (flood test species), scale 0 to 10 (0 no effect, 10 complete control)
  Barnyardgrass plant response rating: 0
bamyardgrass; Rate 500 g/ha, headed Pre-emergence (flood test species), scale 0 to 10 (0 no effect, 10 complete control)
  Plant response rating, Barnyardgrass: 0
bamyardgrass; Rate 1000 g/ha, Pre-emergence (as headed), scale 0 to 10
  Barnyardgrass plant response rating: 0
bamyardgrass; Rate 2000 g/ha, Pre-emergence (as headed), scale 0 to 10, 0 no effect, 10 complete control
  Barnyardgrass plant response rating: 0
Winter wheat [3]; Rate 62 g/ha, 0 to 100 scale
  Plant response rating, Wheat (winter): 10
Winter wheat [3]; Rate 125 g/ha, 0 to 100 scale
  Plant response rating, Wheat (winter): 10
Winter wheat [3]; Rate 250 g/ha, 0 to 100 scale (0 no effect, 100 complete control)
  Plant response rating, Wheat (winter): 20
Wild oat; [5]
  Plant response rating, Wild oat: 20
Wild oat; [6]
  Plant response rating, Wild oat: 10
crabgrass; [11]
  Crabgrass plant response rating: 3
crabgrass; [12]
  Crabgrass plant response rating: 8
crabgrass; [13]
  Crabgrass plant response rating: 7
crabgrass; [14]
  Plant response rating, Crabgrass: 8
crabgrass; [15]
  Crabgrass plant response rating: 10
crabgrass; [16]
  Crabgrass plant response rating: 2
crabgrass; [17]
  Crabgrass plant response rating: 8
Blackgrass [4]; [11]
  Blackgrass plant response rating: 3
Blackgrass [4]; [12]
  Blackgrass plant response rating: 7
Blackgrass [4]; [13]
  Blackgrass plant response rating: 5
Blackgrass [4]; [18]
  Plant response rating, Blackgrass: 8
Blackgrass [4]; [14]
  Plant response rating, Blackgrass: 9
Blackgrass [4]; [15]
  Blackgrass plant response rating: 9
Blackgrass [4]; [16]
  Blackgrass plant response rating: 2
Blackgrass [4]; [17]
  Blackgrass plant response rating: 8
Spanishneedles; Rate 16 g/ha
  Plant response rating, Spanishneedles: 0
Spanishneedles; Rate 32 g/ha
  Plant response rating, Spanishneedles: 0
Spanishneedles; Rate 64 g/ha
  Spanishneedles plant response rating: 0
Spanishneedles; Rate 125 g/ha
  Spanishneedles plant response rating: 10
morningglory; [11]
  Morningglory plant response rating: 7
morningglory; [12]
  Morningglory plant response rating: 7
morningglory; [13]
  Morningglory plant response rating: 0
morningglory; [18]
  Plant response rating, Morningglory: 2
morningglory; [14]
  Plant response rating, Morningglory: 2
morningglory; [15]
  Morningglory plant response rating: 5
morningglory; [16]
  Morningglory plant response rating: 3
morningglory; [17]
  Morningglory plant response rating: 8
Purple nutsedge; [7]
  Plant response rating, Purple nutsedge: 0
Purple nutsedge; [8]
  Plant response rating, Purple nutsedge: 0
Purple nutsedge; [9]
  Purple nutsedge plant response rating: 0
Purple nutsedge; [10]
  Purple nutsedge plant response rating: 0
Purple nutsedge; Rate 250 g/ha
  Plant response rating, Purple nutsedge: 0
